PubChem BioAssay (NCI)
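Five compound concentrations were applied to cells in 96-well plates for 48 hours; endpoints were derived by simple linear interpolation of the resulting dose-response curve. The concentration for 50% growth inhibition is given as GI50. TGI marks complete inhibition of growth.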

Key:
Test in all cases: NCI-60 cell line screen, 48 h
A498 renal = tested on: A498 renal
COLO 205 colon = tested on: COLO 205 colon
DU-145 prostate = tested on: DU-145 prostate
HCT-116 colon = tested on: HCT-116 colon
HOP-62 NSCLC = tested on: HOP-62 NSCLC
HOP-92 NSCLC = tested on: HOP-92 NSCLC
HT29 colon = tested on: HT29 colon
IGROV1 ovarian = tested on: IGROV1 ovarian
SW-620 colon = tested on: SW-620 colon
UACC-257 melanoma = tested on: UACC-257 melanoma

SMILES | TGI (A498 renal) [µM] | TGI (COLO 205 colon) [µM] | TGI (DU-145 prostate) [µM] | TGI (HCT-116 colon) [µM] | TGI (HOP-62 NSCLC) [µM] | TGI (HOP-92 NSCLC) [µM] | TGI (HT29 colon) [µM] | TGI (IGROV1 ovarian) [µM] | TGI (SW-620 colon) [µM] | TGI (UACC-257 melanoma) [µM] | GI50 (A498 renal) [nM] | GI50 (COLO 205 colon) [nM] | GI50 (DU-145 prostate) [nM] | GI50 (HCT-116 colon) [nM] | GI50 (HOP-62 NSCLC) [nM] | GI50 (HOP-92 NSCLC) [nM] | GI50 (HT29 colon) [nM] | GI50 (IGROV1 ovarian) [nM] | GI50 (SW-620 colon) [nM] | GI50 (UACC-257 melanoma) [nM]
Cc1c(F)c(N)c2c(=O)cc(-c3ccc(NC(=O)C(N)CCCN=C(N)N)c(F)c3)oc2c1F (stereo not given) | 0.281 | > 100 | > 78.9 | > 100 | 99.6 | > 100 | > 100 | 10.8 | > 100 | 7.41 | – | – | – | – | – | – | – | – | – | –
CC(C)(C)OC(=O)NCC(=O)N1CCCN(C(=O)CNC(=O)OC(C)(C)C)CC1 | > 100 | > 100 | > 100 | > 100 | > 100 | > 100 | > 100 | > 100 | > 100 | > 100 | – | – | – | – | – | – | – | – | – | –
C/C(N=Nc1nc2ccccc2o1)=C1/C=CC=CN1O | > 100 | > 100 | > 100 | > 100 | > 100 | 39.7 | > 100 | > 100 | > 100 | > 100 | – | – | – | – | – | – | – | – | – | –
Nc1ccc(-n2c(=O)oc3ccc(Cl)cc3c2=O)c(Cl)c1 | 0.114 | 8.26 | 14 | 0.52 | 1.59 | 0.168 | > 35.3 | 36.7 | 8.18 | 0.433 | 37.2 | 2970 | 202 | 108 | 202 | 28.1 | 1170 | 140 | 161 | 74.1
N#Cc1nc(/C=C/c2ccccc2)oc1N | > 100 | > 100 | > 100 | > 100 | > 100 | > 100 | > 100 | > 100 | > 100 | > 100 | – | – | – | – | – | – | – | – | – | –
COc1cc(-c2nc3nc(N4CCN(C)CC4)ccc3[nH]2)c(OC)c2[nH]c(COC(C)=O)nc12 | > 100 | > 100 | > 100 | 58.6 | > 100 | > 100 | 61.8 | > 100 | > 100 | 61.4 | – | – | – | – | – | – | – | – | – | –
O=C(/C=C/c1ccccc1O)/C=C/c1ccccc1O | 4.18 | 3.4 | 3.2 | 1.23 | 5.76 | 4.87 | 4.85 | 3.31 | 4.36 | 21.8 | – | – | – | – | – | – | – | – | – | –
CC(C)(NC1=NCCO1)c1ccccc1 | > 100 | > 100 | > 100 | > 100 | > 100 | > 100 | > 100 | > 100 | > 100 | > 100 | – | – | – | – | – | – | – | – | – | –
OCC(O)C(O)C(O)C(/C=N\Nc1ncnc2ccc(Br)cc12)=N/Nc1ncnc2ccc(Br)cc12 (stereo not given) | > 100 | > 100 | > 100 | > 100 | > 100 | > 100 | > 100 | > 100 | > 100 | > 100 | – | – | – | – | – | – | – | – | – | –
C/C=C\C(CC(=O)NCCC1CN(C(=O)c2ccccc2)c2ccccc21)CC(=O)OC (stereo not given) | > 100 | > 100 | > 100 | > 100 | > 100 | > 100 | > 100 | > 100 | > 100 | > 100 | – | – | – | – | – | – | – | – | – | –
O=C1C(N=Nc2ccc(-c3nc4ccccc4[nH]3)cc2)NC(=S)N1c1ccccc1 (stereo not given) | > 100 | > 100 | > 100 | > 100 | > 100 | > 100 | > 100 | > 100 | 80.1 | > 100 | – | – | – | – | – | – | – | – | – | –
CC(C)(C)c1cc(C2COC(=O)COCC(=O)OCCOCCOCCO2)cc(C(C)(C)C)c1O (stereo not given) | > 91.9 | > 100 | 41.7 | > 100 | > 100 | 59.3 | > 100 | > 100 | > 100 | > 100 | – | – | – | – | – | – | – | – | – | –
CCOC(=O)C(=Cn1c(=S)[nH]c2ccc([N+](=O)[O-])cc21)C(=O)OCC | > 100 | > 100 | > 100 | > 100 | > 100 | > 100 | > 100 | > 100 | > 100 | > 100 | – | – | – | – | – | – | – | – | – | –
C#CCOC(=O)C(N)CCCN=C(N)N (stereo not given) | > 100 | > 100 | > 100 | > 100 | > 100 | > 100 | > 100 | > 100 | > 100 | > 100 | – | – | – | – | – | – | – | – | – | –
COc1ccc(/C=N/n2c(Cc3ccc(Cl)cc3)n[nH]c2=O)c(OC)c1 | 51.1 | > 100 | > 100 | > 100 | > 100 | 65.9 | 75.1 | > 100 | > 100 | > 100 | – | – | – | – | – | – | – | – | – | –
